Experimental data as given in ChEMBL document CHEMBL4334438, “Discovery of novel glycogen synthase kinase-3α inhibitors: Structure-based virtual screening, preliminary SAR and biological evaluation for treatment of acute myeloid leukemia” (Eur J Med Chem, 2019).

What was measured:
[1] = tested on: Glycogen synthase kinase-3 alpha (Homo sapiens), P49840 [UNDEFINED MUTATION]; assay: Inhibition of human GSK-3alpha S449A mutant (2 to end residues) at 10 uM using phospho GS2 peptide as substrate after 40 mins in presence of [gamma-33ATP] by scintillation counting method relative to control
Sequence of Glycogen synthase kinase-3 alpha (Homo sapiens), P49840 [UNDEFINED MUTATION] (P49840 whole entry, looked up, stated change not applied): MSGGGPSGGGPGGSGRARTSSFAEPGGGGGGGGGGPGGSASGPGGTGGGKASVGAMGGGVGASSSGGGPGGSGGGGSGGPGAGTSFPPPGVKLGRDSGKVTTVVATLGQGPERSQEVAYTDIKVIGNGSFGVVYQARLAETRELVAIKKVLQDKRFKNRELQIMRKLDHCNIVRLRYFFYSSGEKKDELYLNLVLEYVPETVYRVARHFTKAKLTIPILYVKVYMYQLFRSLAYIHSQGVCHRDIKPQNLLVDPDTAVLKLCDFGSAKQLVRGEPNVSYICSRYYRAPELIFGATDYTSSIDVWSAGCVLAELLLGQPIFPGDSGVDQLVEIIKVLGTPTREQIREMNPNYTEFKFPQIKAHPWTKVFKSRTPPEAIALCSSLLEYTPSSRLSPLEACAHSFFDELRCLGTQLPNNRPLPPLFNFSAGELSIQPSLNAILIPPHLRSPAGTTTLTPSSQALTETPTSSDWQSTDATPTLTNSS

[2] = target: Cytoplasmic tyrosine-protein kinase BMX (Homo sapiens) (UniProt P51813); assay: Inhibition of recombinant full length human BMX assessed as residual activity at 1 uM using poly(Glu, Tyr) 4:1 as substrate incubated for 40 mins in presence of [gamma-33ATP] by scintillation counting based radiometry assay relative to control
Sequence of Cytoplasmic tyrosine-protein kinase BMX (Homo sapiens) (P51813 whole entry): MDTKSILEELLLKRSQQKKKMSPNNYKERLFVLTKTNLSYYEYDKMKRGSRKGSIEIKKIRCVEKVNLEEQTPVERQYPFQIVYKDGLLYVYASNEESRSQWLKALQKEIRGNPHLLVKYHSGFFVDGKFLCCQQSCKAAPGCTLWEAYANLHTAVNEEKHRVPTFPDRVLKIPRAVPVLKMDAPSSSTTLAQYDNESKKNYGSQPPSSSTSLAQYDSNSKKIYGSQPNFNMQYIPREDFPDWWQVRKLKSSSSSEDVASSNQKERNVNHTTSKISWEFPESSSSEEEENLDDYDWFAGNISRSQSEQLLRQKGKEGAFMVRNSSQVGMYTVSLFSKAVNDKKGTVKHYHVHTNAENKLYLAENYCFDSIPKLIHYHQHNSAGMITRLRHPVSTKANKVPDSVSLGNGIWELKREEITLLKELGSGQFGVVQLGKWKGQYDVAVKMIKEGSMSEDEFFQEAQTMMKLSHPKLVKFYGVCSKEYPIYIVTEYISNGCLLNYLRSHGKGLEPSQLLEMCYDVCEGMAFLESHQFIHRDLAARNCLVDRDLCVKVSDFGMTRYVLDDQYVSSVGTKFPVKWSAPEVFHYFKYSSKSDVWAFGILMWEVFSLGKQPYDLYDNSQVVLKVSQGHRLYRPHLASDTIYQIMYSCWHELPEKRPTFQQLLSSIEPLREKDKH

[3] = target: Protein-tyrosine kinase 6 (Homo sapiens) (UniProt Q13882); assay: Inhibition of recombinant full length human BRK assessed as residual activity at 1 uM using poly(Glu, Tyr) 4:1 as substrate incubated for 40 mins in presence of [gamma-33ATP] by scintillation counting based radiometry assay relative to control
Homo sapiens = species: Homo sapiens; assay: Inhibition of recombinant human BRSK2 S251I mutant (2 to end residues) assessed as residual activity at 1 uM using KKLNRTLSFAEPG substrate incubated for 40 mins in presence of [gamma-33ATP] by scintillation counting based radiometry assay relative to control
[4] = target: Tyrosine-protein kinase BTK (Homo sapiens) (UniProt Q06187); assay: Inhibition of recombinant full length human BTK assessed as residual activity at 1 uM using KVEKIGEGTYGVV substrate incubated for 40 mins in presence of [gamma-33ATP] by scintillation counting based radiometry assay relative to control
[5] = tested on: Calcium/calmodulin-dependent protein kinase kinase 2 (Homo sapiens), Q96RR4 [T85S]; assay: Inhibition of recombinant full length human CaMKK2 T85S mutant assessed as residual activity at 1 uM […] incubated for 40 mins in presence of [gamma-33ATP] by scintillation counting based radiometry assay relative to control
Sequence of Calcium/calmodulin-dependent protein kinase kinase 2 (Homo sapiens), Q96RR4 [T85S] (Q96RR4 whole entry T85S): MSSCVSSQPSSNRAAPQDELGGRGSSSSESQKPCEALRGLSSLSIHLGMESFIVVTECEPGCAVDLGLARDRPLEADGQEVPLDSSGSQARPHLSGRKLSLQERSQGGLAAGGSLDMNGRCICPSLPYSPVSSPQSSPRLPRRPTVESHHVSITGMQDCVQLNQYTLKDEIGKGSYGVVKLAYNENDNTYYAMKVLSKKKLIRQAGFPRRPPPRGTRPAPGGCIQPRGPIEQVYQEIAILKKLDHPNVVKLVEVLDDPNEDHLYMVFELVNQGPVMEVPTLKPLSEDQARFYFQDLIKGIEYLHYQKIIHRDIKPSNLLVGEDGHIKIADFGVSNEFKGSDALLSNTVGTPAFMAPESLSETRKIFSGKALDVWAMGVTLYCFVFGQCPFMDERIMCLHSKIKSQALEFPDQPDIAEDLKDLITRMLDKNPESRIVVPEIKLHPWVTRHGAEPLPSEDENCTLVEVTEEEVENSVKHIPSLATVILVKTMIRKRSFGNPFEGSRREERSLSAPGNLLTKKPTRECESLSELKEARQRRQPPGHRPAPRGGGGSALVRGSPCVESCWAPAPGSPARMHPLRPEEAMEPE

[6] = target: Cyclin-dependent kinase 1/cyclin B1 (Homo sapiens) (UniProt P06493+P14635); assay: Inhibition of recombinant full length human CDK1/CyclinB assessed as residual activity at 1 uM using Histone H1 as substrate incubated for 40 mins in presence of [gamma-33ATP] by scintillation counting based radiometry assay relative to control; type: protein-complex assay
[7] = tested on: Casein kinase I isoform gamma-3 (Homo sapiens), Q9Y6M4 [UNDEFINED MUTATION]; assay: Inhibition of recombinant human CK1gamma3 K91E/R174G/E302D mutant (1 to 330 residues) assessed as residual activity at 1 uM using KRRRALS(p)VASLPGL as substrate incubated for 40 mins in presence of [gamma-33ATP] by scintillation counting based radiometry assay relative to control
[8] = tested on: Mast/stem cell growth factor receptor Kit (Homo sapiens), P10721 [D816V]; assay: Inhibition of recombinant human C-Kit D816V mutant (544 to end residues) assessed as residual activity at 1 uM poly(Glu, Tyr) 4:1 as substrate incubated 40 mins in presence of [gamma-33ATP] by scintillation counting based radiometry assay relative to control
[9] = target: Serine/threonine-protein kinase 17A (Homo sapiens) (UniProt Q9UEE5); assay: Inhibition of recombinant human DRAK1 assessed as residual activity at 1 uM using KKLNRTLSFAEPG as substrate at 40 mins in presence of [gamma-33ATP] by scintillation counting based radiometry assay relative to control
Sequence of Serine/threonine-protein kinase 17A (Homo sapiens) (Q9UEE5 whole entry): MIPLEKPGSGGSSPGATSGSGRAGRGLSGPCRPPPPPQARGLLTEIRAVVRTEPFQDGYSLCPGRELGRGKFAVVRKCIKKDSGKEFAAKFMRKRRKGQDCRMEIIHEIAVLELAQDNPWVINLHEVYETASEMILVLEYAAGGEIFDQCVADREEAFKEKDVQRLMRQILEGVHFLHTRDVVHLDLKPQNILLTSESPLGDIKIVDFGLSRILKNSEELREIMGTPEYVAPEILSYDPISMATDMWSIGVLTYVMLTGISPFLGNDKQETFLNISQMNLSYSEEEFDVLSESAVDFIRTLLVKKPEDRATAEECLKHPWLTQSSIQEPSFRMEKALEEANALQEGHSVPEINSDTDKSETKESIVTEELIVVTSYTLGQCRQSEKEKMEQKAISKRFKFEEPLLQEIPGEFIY

[10] = target: Interleukin-1 receptor-associated kinase 1 (Homo sapiens) (UniProt P51617); assay: Inhibition of human IRAK1 (194 to end residues) assessed as residual activity at 1 uM using myelin basic protein as substrate after 40 mins by [gamma-33ATP] radiometric assay relative to control
[11] = target: Mitogen-activated protein kinase 9 (Homo sapiens) (UniProt P45984); assay: Inhibition of human JNK2alpha2 assessed as residual activity at 1 uM using ATF2 as substrate after 40 mins by [gamma-33ATP] radiometric assay relative to control
Sequence of Mitogen-activated protein kinase 9 (Homo sapiens) (P45984 whole entry, looked up): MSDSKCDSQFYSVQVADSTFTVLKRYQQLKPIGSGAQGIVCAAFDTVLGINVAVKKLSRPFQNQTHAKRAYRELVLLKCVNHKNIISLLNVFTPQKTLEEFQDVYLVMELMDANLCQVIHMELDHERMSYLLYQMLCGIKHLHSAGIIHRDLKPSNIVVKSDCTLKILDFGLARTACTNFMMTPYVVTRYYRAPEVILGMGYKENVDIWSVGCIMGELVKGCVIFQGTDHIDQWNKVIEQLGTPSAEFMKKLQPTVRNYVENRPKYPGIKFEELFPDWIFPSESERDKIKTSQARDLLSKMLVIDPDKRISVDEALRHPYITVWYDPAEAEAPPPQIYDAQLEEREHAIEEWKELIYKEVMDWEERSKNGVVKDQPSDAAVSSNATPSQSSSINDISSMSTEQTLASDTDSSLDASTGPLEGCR

[12] = target: Leukocyte tyrosine kinase receptor (Homo sapiens) (UniProt P29376); assay: Inhibition of recombinant human LTK (450 to end residues) assessed as residual activity at 1 uM using GEEPLYWSFPAKKK as substrate after 40 mins in presence of [gamma-33ATP] by scintillation counting based radiometry assay relative to control
Sequence of Leukocyte tyrosine kinase receptor (Homo sapiens) (P29376 whole entry): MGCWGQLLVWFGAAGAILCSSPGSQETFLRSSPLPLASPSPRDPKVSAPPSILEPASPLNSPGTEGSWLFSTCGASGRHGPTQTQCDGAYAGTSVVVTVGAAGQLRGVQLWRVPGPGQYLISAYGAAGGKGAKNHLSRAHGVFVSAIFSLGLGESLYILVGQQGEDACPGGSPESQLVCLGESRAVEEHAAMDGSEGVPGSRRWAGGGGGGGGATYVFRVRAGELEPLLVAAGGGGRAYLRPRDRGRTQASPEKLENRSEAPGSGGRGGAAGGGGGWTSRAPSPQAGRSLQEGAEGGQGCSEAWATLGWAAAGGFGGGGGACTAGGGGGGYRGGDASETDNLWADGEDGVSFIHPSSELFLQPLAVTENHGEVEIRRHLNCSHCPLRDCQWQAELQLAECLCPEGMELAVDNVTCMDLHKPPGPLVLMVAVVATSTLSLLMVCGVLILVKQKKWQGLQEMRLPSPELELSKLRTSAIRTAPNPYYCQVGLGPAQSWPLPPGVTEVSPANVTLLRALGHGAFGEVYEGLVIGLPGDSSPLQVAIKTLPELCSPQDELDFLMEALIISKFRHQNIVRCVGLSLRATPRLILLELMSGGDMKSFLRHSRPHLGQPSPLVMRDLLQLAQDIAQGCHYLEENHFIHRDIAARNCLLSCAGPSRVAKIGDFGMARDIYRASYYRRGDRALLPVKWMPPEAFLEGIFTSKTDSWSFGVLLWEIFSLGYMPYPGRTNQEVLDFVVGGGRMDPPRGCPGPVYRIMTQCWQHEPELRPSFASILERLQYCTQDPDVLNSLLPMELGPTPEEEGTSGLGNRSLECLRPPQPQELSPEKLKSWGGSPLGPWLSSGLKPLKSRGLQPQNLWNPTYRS

[13] = target: Serine/threonine-protein kinase Nek11 (Homo sapiens) (UniProt Q8NG66); assay: Inhibition of recombinant full length human NEK11 assessed as residual activity at 1 uM myelin basic protein as substrate measured after 40 mins in presence of [gamma33P]ATP by scintillation counting method relative to control
Sequence of Serine/threonine-protein kinase Nek11 (Homo sapiens) (Q8NG66 whole entry): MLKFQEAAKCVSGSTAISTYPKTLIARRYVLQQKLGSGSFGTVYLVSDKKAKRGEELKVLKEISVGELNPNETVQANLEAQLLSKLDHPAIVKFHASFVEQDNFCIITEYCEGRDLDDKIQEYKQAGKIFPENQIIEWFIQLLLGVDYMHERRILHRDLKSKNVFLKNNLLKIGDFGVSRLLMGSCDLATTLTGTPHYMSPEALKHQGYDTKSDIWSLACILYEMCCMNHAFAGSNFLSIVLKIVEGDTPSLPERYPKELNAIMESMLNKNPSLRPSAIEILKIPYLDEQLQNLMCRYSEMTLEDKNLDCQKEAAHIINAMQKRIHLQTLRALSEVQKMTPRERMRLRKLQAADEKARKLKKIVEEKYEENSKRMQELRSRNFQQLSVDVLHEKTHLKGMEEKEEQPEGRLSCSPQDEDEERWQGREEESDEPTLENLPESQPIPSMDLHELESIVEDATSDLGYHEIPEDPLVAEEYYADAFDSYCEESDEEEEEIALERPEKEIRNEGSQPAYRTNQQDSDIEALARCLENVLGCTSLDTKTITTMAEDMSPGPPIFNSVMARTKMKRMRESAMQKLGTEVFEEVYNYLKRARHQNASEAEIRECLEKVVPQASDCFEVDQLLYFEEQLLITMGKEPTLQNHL

[14] = target: Protein kinase C delta type (Homo sapiens) (UniProt Q05655); assay: Inhibition of recombinant human PKCdelta (2 to end residues) assessed as residual activity at 1 uM using ERMRPRKRQGSVRRRV as substrate measured after 40 mins in presence of [gamma33P]ATP by scintillation counting method relative to control
[15] = target: Serine/threonine-protein kinase PLK1 (Homo sapiens) (UniProt P53350); assay: Inhibition of recombinant full-length human Plk1 assessed as residual activity at 1 uM using casein as substrate measured after 40 mins in presence of [gamma33P]ATP by scintillation counting method relative to control
[16] = tested on: Mitogen-activated protein kinase 14 (Homo sapiens), Q16539 [T106M]; assay: Inhibition of recombinant human full length SAPK2a T106M mutant assessed as residual activity at 1 uM using myelin basic protein as substrate measured after 40 mins in presence of [gamma33P]ATP by scintillation counting method relative to control
Sequence of Mitogen-activated protein kinase 14 (Homo sapiens), Q16539 [T106M] (Q16539 whole entry T106M): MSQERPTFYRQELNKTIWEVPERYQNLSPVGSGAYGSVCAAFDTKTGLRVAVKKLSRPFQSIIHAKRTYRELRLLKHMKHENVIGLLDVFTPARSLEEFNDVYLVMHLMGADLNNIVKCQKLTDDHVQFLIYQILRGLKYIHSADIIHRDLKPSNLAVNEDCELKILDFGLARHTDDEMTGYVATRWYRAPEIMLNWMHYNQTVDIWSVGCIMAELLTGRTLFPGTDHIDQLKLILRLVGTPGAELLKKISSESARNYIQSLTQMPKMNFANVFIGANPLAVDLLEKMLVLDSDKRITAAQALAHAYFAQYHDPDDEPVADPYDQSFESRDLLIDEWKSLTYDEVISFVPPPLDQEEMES

[17] = target: Serine/threonine-protein kinase 33 (Homo sapiens) (UniProt Q9BYT3); assay: Inhibition of recombinant full-length human STK33 at 1 uM assessed as residual activity at 1 uM using myelin basic protein as substrate measured after 40 mins in presence of [gamma33P]ATP by scintillation counting method relative to control
Sequence of Serine/threonine-protein kinase 33 (Homo sapiens) (Q9BYT3 whole entry, looked up): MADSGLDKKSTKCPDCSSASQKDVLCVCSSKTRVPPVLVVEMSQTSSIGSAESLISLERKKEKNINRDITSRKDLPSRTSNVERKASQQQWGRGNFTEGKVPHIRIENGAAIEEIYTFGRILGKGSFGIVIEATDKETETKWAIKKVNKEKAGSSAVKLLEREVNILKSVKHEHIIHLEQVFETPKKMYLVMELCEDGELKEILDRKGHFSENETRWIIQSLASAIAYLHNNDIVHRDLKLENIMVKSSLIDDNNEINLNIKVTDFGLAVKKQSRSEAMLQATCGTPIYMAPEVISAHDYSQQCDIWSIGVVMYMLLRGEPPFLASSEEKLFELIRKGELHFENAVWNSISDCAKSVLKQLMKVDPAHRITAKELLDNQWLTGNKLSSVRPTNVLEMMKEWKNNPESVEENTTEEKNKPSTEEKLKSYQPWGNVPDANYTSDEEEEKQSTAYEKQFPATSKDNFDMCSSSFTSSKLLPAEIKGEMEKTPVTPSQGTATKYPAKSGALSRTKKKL

[18] = target: High affinity nerve growth factor receptor (Homo sapiens) (UniProt P04629); assay: Inhibition of human TrkA (440 to end residues) assessed as residual activity at 1 uM using KKKSPGEYVNIEFG as substrate measured after 40 mins in presence of [gamma33P]ATP by scintillation counting method relative to control
[19] = target: Tyrosine-protein kinase TXK (Homo sapiens) (UniProt P42681); assay: Inhibition of human Txk (256 to end residues) assessed as residual activity at 1 uM using GEEPLYWSFPAKKK as substrate measured after 40 mins in presence of [gamma33P]ATP by scintillation counting method relative to control
[20] = target: Serine/threonine-protein kinase WNK3 (Homo sapiens) (UniProt Q9BYP7); assay: Inhibition of human WNK3 (1 to 434 residues) assessed as residual activity at 1 uM using myelin basic protein as substrate measured after 40 mins in presence of [gamma33P]ATP by scintillation counting method relative to control
[21] = target: Phosphatidylinositol 4-phosphate 3-kinase C2 domain-containing subunit alpha (Homo sapiens) (UniProt O00443); assay: Inhibition of recombinant human PI3KC2alpha (299 to end residues) at 1 uM assessed as residual activity at 1 uM using phosphatidylinositol as substrate measured after 40 mins by HTRF assay

| SMILES | inhibition [1] [%] | Activity [2] [%] | Activity [3] [%] | Activity (Homo sapiens) [%] | Activity [4] [%] | Activity [5] [%] | Activity [6] [%] | Activity [7] [%] | Activity [8] [%] | Activity [9] [%] | Activity [10] [%] | Activity [11] [%] | Activity [12] [%] | Activity [13] [%] | Activity [14] [%] | Activity [15] [%] | Activity [16] [%] | Activity [17] [%] | Activity [18] [%] | Activity [19] [%] | further results |
| --- | --- | --- | --- | --- | --- | --- | --- | --- | --- | --- | --- | --- | --- | --- | --- | --- | --- | --- | --- | --- | --- |
| N=C1NC(=O)/C(=C\c2ccc(-c3cccc([N+](=O)[O-])c3)o2)S1 | 96 | 101 | 103 | 42 | 93 | 92 | 73 | 97 | 94 | 80 | 100 | 103 | 114 | 55 | 103 | 99 | 80 | 88 | 93 | 100 | Activity [20]: 99%; Activity [21]: 100% |
| C=CCOC(=O)c1cc(-c2ccc(/C=C3/NC(=S)NC3=O)o2)ccc1Cl | 93 | 103 | 106 | 71 | 101 | 94 | 65 | 121 | 97 | 83 | 90 | 109 | 104 | 62 | 96 | 103 | 100 | 96 | 100 | 104 | Activity [20]: 102%; Activity [21]: 87% |
